Test results taken from paper PMC6271731, “Multitarget Molecular Hybrids of Cinnamic Acids” (Molecules, 2014).

Test: TLC screening for free radical scavengers (DPPH)
Conditions: plates sprayed with 0.1 mM DPPH ethanolic solution
Experimental: TLC was used for screening the synthesized hybrids as radical scavengers. The compound solutions in DMSO were spotted onto a silica gel F254 precoated plate and developed using […] and 95% CHCl3 as developing solvents. After development the plates were air-dried and sprayed with 0.1 mM DPPH ethanolic solution for detecting the compounds with rapid scavenging properties.

CC(Cc1ccc(O)c(O)c1)C(C)Cc1ccc(O)c(O)c1 (stereo not shown) [NDGA, nordihydroguaiaretic acid]
scavenging of DPPH (visual, TLC): white spots on a purple background
